Test results as given in paper PMC9519552, “Activation of the human insulin receptor by non-insulin-related peptides” (Nature Communications, 2022).
Where two headings read alike, the source gives them in different places. Positions of bridges follow the written chain, without caps; N, C: chain ends. Residues, ends and D or L forms follow the SMILES beside them.

Experiments:
[1] = biological target: T1, human holoIR-A over-expressed in HEK293 cells (Homo sapiens, UniProt P06213); test: Inhibition of hIR phosphorylation by peptides, co-incubated with BHI at its EC50 (ELISA); format: cell-based; settings: for hIRA Phosph IC50 Run 1 / hIRA Phosph IC50 Run 2 / hIRA Phosph IC50 Run 3: inhibition of insulin-stimulated phosphorylation; for hIRA Phosph IC50 Run 1: BHI at its EC50, run 1; for hIRA Phosph IC50 Run 2: BHI at its EC50, run 2; for hIRA Phosph IC50 Run 3: BHI at its EC50, run 3; for IC50: read-out: hIRA Phosph IC50 Mean
T1 construct: expressed in transfected cells; host or cells: HEK293, stably transfected
T1 sequence (P06213 28-1370 isoform P06213-2 limits assumed): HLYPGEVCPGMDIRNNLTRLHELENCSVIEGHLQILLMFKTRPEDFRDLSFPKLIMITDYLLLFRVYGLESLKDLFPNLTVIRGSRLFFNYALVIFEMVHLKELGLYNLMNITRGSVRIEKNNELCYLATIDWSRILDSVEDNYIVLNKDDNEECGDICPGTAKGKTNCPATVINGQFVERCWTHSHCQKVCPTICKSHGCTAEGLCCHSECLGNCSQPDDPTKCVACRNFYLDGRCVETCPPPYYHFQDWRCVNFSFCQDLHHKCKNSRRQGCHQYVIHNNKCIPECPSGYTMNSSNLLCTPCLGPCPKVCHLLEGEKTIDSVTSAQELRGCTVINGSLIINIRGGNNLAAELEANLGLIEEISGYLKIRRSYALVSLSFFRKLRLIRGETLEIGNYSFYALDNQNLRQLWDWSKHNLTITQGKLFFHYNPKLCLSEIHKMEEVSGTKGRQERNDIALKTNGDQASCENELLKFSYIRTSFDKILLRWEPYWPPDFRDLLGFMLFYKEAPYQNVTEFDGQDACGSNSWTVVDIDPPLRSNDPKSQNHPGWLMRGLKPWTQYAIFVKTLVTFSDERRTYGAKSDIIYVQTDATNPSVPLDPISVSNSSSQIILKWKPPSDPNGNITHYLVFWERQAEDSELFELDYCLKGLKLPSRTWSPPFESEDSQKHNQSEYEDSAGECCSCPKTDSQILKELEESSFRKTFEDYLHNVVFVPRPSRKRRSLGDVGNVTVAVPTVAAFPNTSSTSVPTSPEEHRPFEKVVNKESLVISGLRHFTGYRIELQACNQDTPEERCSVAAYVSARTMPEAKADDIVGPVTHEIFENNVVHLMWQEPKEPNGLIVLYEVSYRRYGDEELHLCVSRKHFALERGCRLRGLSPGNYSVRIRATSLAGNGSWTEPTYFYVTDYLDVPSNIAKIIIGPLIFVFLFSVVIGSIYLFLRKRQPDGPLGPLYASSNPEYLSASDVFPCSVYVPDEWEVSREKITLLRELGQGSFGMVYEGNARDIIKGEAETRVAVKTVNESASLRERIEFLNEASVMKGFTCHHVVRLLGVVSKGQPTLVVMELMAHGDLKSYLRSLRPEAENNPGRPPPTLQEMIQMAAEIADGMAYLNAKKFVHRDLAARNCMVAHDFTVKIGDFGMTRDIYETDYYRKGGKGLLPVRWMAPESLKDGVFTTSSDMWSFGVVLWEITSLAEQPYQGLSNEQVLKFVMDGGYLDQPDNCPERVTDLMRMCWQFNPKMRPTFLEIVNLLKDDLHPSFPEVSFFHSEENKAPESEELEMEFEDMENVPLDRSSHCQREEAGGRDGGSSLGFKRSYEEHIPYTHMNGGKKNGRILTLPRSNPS
T1 sequence (P06213 763-1382 partner limits assumed): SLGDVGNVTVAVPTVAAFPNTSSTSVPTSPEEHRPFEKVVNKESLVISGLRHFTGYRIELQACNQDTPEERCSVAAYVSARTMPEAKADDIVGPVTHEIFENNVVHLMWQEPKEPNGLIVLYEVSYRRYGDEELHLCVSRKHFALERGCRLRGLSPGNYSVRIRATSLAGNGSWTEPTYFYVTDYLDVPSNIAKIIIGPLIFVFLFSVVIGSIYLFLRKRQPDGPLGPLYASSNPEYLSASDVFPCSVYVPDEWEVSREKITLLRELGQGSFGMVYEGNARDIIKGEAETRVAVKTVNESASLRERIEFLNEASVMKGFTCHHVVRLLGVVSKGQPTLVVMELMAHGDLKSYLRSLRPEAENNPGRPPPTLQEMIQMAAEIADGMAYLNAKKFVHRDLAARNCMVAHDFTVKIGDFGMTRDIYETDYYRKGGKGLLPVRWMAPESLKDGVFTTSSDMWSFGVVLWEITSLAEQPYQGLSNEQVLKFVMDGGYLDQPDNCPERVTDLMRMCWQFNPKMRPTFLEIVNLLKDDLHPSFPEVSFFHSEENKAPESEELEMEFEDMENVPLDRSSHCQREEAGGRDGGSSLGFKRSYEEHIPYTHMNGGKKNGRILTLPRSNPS
Procedure: Phosphorylation was quantified using an ELISA technique. Ninety-six well, flat-bottom microplates (Greiner Bio-One) were pre-coated with 2 µg mL^−1 anti-C9 monoclonal antibody (Rho 1D4; University of British Columbia)[27] in 20 mM sodium carbonate, pH 9.6, at 4 °C for overnight prior to the assay. On the assay day, plates were washed 3× with 0.1% Tween in 50 mM Tris Buffer Saline, pH 7.5 (TBST), and then blocked for greater than 1 h at room temperature (RT) with 1% BSA (Sigma) in TBST.
Stably transfected HEK293 cells over-expressing human holoIR-A containing a C-terminal C9 epitope tag ([…]), were plated at 6 × 10^4 cells per well serum-starved using 0.1% BSA in DMEM (Gibco) for overnight at standard tissue culture condition. […] After a 15-min incubation in lysis buffer at 4 °C, the lysate was transferred to anti-C9 antibody coated capture plate (Rho 1D4; University of British Columbia)[27]. […] After a 1 h incubation at room temperature, the secondary antibody was removed by washing 3× with TBST. Signal detection occurred with the addition of TMB, an HRP substrate (Pierce). After 5–10 min, the reaction was stopped by adding an equal volume of 2 M H2SO4, and the absorbance readings at 450 nm (A450) were recorded using a Envision plate reader (PerkinElmer). Samples were tested in three independent assay runs on three different days.
Percent specific response (y-axis) was plotted versus the log concentration of compound (x-axis) using Prism Version 9.3.1 (GraphPad Software). Individual measurements are provided as Source Data.

[2] = biological target: T2, human IR-A (holoIR-A) (Homo sapiens, UniProt P06213); test: holoIR-A competitive radioligand binding assay (scintillation proximity assay); settings: for Ki: IM172N22(-) mutant peptide set; for reduction in ki for hIR-A on substitution: relative to control peptide IM172N22 devoid of N-terminal phenylacetylation
T2 construct: expressed in transfected cells; host or cells: HEK293 (ATCC #CRL-1573), stably transfected; membrane preparation
T2 sequence (P06213 28-1370 isoform P06213-2 limits assumed): as the sequence (P06213 28-1370 isoform P06213-2 limits assumed) above
T2 sequence (P06213 763-1382 partner limits assumed): as the sequence (P06213 763-1382 partner limits assumed) above
Procedure: Cellular membranes were prepared from human embryonic kidney (HEK293; ATCC #CRL-1573) cells stably transfected with cDNA corresponding to human IR-A (holoIR-A) plus a C-terminal C9 tag ([…]) inserted within a pcDNA3.1 plasmid (Invitrogen), with positive clones selected with 800 μg mL^−1 neomycin and confirmed by Western Blot. Frozen cell pellets were thawed in ice-cold homogenization/resuspension buffer (50 mM Tris-HCl, pH 7.5) containing one cOmplete® protease inhibitor tablet with EDTA (Roche Diagnostics) per 50 mL buffer. Cells were homogenized with an overhead motor-driven Teflon-glass homogenizer using 15–20 strokes, followed by centrifugation at 1100 × g for 10 min at 4 °C. The supernatant was saved on ice, pellets were homogenized as before, and centrifuged at 1100 × g for 10 min at 4 °C. Both supernatants were combined and subsequently centrifuged at 35,000 × g for 60 min at 4 °C. The pellet was resuspended in buffer (4 to 5 mL g^−1 of starting cell paste) containing protease inhibitors and quick frozen in liquid nitrogen prior to storage at −80 °C. Protein concentration was determined using a BCA kit (Thermo Scientific) with bovine serum albumin (BSA) as standard.
The assays were performed with a scintillation proximity assay (SPA) method using polyvinyltoluene (PVT) wheat germ agglutinin-coupled SPA beads (Perkin Elmer). Assay buffer containing 50 mM Tris-HCl (pH 7.5), 150 mM NaCl, 0.1% w/v fatty-acid free BSA was used for all compound testing and reagent preparation. Ten-point concentration response curves with three-fold serial dilutions of test samples or controls were prepared in the assay buffer. […] Plates were sealed and shaken for 1 min on a plate shaker. Following a 10-h incubation and bead settling period at room temperature, radioactivity was determined using a MicroBeta Trilux scintillation counter (Perkin Elmer) and expressed as counts per minute (CPM). […] Samples were tested in three independent assay runs on three different days.
All test sample concentration responses were normalized to the control response and calculated as a percent of the maximal response after correcting for nonspecific binding as shown below: %Specific Inhibition=100%−[(CPM−MIN)/(MAX−MIN)×100%]
Percent specific binding (y-axis) was plotted vs log concentration of compound (x-axis) using Prism Version 9.3.1 (GraphPad Software). Individual measurements are provided as Source Data.

[3] = mean of 3 runs, read-out: hIRA Binding Ki Mean
[4] = run 1, read-out: hIRA Binding Ki Run 1
[5] = run 2, read-out: hIRA Binding Ki Run 2
[6] = run 3, read-out: hIRA Binding Ki Run 3

Row | SMILES | hIRA Phosph IC50 Run 1 [1] [nM] | hIRA Phosph IC50 Run 2 [1] [nM] | hIRA Phosph IC50 Run 3 [1] [nM] | IC50 [1] [nM] | Ki [2, 3] [nM] | Ki [2, 4] [nM] | Ki [2, 5] [nM] | Ki [2, 6] [nM] | binding of the mutant peptide to hIR-A (in words) ([2]; alanine substitution in IM172N22(-)) | reduction in ki for hIR-A on substitution [2]
1 | CC(=O)N[C@@H](CO)C(=O)N[C@@H](CC(C)C)C(=O)N[C@@H](CCC(=O)O)C(=O)N[C@@H](CCC(=O)O)C(=O)N[C@@H](CCC(=O)O)C(=O)N[C@@H](Cc1c[nH]c2ccccc12)C(=O)N[C@@H](C)C(=O)N[C@@H](CCC(N)=O)C(=O)N[C@@H](C)C(=O)N[C@@H](CCC(=O)O)C(=O)N[C@H]1CSSC[C@@H](C(=O)N2CCC[C@H]2C(=O)N2CCC[C@H]2C(=O)N[C@@H](CO)C(=O)N[C@@H](CCC(=O)O)C(=O)N[C@@H](CO)C(N)=O)NC(=O)[C@H](CCCNC(=N)N)NC(=O)CNC(=O)[C@H](Cc2ccc(O)cc2)NC(=O)[C@H](C(C)C)NC(=O)[C@H](CCC(=O)O)NC1=O [Peptide I9A] (Ac-SLEEEWAQAECEVYGRCPPSES-NH2; disulfide 11-17) | 4745 | 4291 | 4550 | 4530 | 952 | 952 | 835 | 1068 | – | –
2 | CC[C@H](C)[C@H](NC(=O)[C@H](C)NC(=O)[C@H](C)NC(=O)[C@H](Cc1c[nH]c2ccccc12)NC(=O)[C@H](CCC(=O)O)NC(=O)[C@H](CCC(=O)O)NC(=O)[C@H](CCC(=O)O)NC(=O)[C@H](CC(C)C)NC(=O)[C@H](CO)NC(C)=O)C(=O)N[C@@H](CCC(=O)O)C(=O)N[C@H]1CSSC[C@@H](C(=O)N2CCC[C@H]2C(=O)N2CCC[C@H]2C(=O)N[C@@H](CO)C(=O)N[C@@H](CCC(=O)O)C(=O)N[C@@H](CO)C(N)=O)NC(=O)[C@H](CCCNC(=N)N)NC(=O)CNC(=O)[C@H](Cc2ccc(O)cc2)NC(=O)[C@H](C(C)C)NC(=O)[C@H](CCC(=O)O)NC1=O [Peptide Q8A] (Ac-SLEEEWAAIECEVYGRCPPSES-NH2; disulfide 11-17) | 84 | 92 | 99 | 91.9 | 6.05 | 5.17 | 6.67 | 6.31 | – | lower than 5 fold
3 | CC[C@H](C)[C@H](NC(=O)[C@H](CCC(N)=O)NC(=O)[C@H](C)NC(=O)[C@H](Cc1c[nH]c2ccccc12)NC(=O)[C@H](CCC(=O)O)NC(=O)[C@H](CCC(=O)O)NC(=O)[C@H](CCC(=O)O)NC(=O)[C@H](CC(C)C)NC(=O)[C@H](CO)NC(C)=O)C(=O)N[C@@H](CCC(=O)O)C(=O)N[C@H]1CSSC[C@@H](C(=O)N2CCC[C@H]2C(=O)N2CCC[C@H]2C(=O)N[C@@H](CO)C(=O)N[C@@H](CCC(=O)O)C(=O)N[C@@H](CO)C(N)=O)NC(=O)[C@H](C)NC(=O)CNC(=O)[C@H](Cc2ccc(O)cc2)NC(=O)[C@H](C(C)C)NC(=O)[C@H](CCC(=O)O)NC1=O [Peptide R16A] (Ac-SLEEEWAQIECEVYGACPPSES-NH2; disulfide 11-17) | 583 | 517 | 744 | 615 | 228 | 211 | 237 | 235 | – | –

Further compounds by falling IC50 [1], results first:

Row | hIRA Phosph IC50 Run 1 [1] [nM] | hIRA Phosph IC50 Run 2 [1] [nM] | hIRA Phosph IC50 Run 3 [1] [nM] | IC50 [1] [nM] | Ki [2, 3] [nM] | Ki [2, 4] [nM] | Ki [2, 5] [nM] | Ki [2, 6] [nM] | binding of the mutant peptide to hIR-A (in words) ([2]; alanine substitution in IM172N22(-)) | reduction in ki for hIR-A on substitution [2] | SMILES
4 | 7523 | 7642 | 7687 | 7620 | > 5000 | >5000 | >5000 | >5000 | no detectable binding | – | CC[C@H](C)[C@H](NC(=O)[C@H](CCC(N)=O)NC(=O)[C@H](C)NC(=O)[C@H](Cc1c[nH]c2ccccc12)NC(=O)[C@H](CCC(=O)O)NC(=O)[C@H](CCC(=O)O)NC(=O)[C@H](CCC(=O)O)NC(=O)[C@H](C)NC(=O)[C@H](CO)NC(C)=O)C(=O)N[C@@H](CCC(=O)O)C(=O)N[C@H]1CSSC[C@@H](C(=O)N2CCC[C@H]2C(=O)N2CCC[C@H]2C(=O)N[C@@H](CO)C(=O)N[C@@H](CCC(=O)O)C(=O)N[C@@H](CO)C(N)=O)NC(=O)[C@H](CCCNC(=N)N)NC(=O)CNC(=O)[C@H](Cc2ccc(O)cc2)NC(=O)[C@H](C(C)C)NC(=O)[C@H](CCC(=O)O)NC1=O [Peptide L2A] (Ac-SAEEEWAQIECEVYGRCPPSES-NH2; disulfide 11-17)
5 | 172 | 109 | 148 | 143 | 14 | 13.0 | 12.9 | 16.2 | – | lower than 5 fold | CC[C@H](C)[C@H](NC(=O)[C@H](CCC(N)=O)NC(=O)[C@H](C)NC(=O)[C@H](Cc1c[nH]c2ccccc12)NC(=O)[C@H](CCC(=O)O)NC(=O)[C@H](CCC(=O)O)NC(=O)[C@H](CCC(=O)O)NC(=O)[C@H](CC(C)C)NC(=O)[C@H](CO)NC(C)=O)C(=O)N[C@@H](CCC(=O)O)C(=O)N[C@H]1CSSC[C@@H](C(=O)N2CCC[C@H]2C(=O)N[C@@H](C)C(=O)N[C@@H](CO)C(=O)N[C@@H](CCC(=O)O)C(=O)N[C@@H](CO)C(N)=O)NC(=O)[C@H](CCCNC(=N)N)NC(=O)CNC(=O)[C@H](Cc2ccc(O)cc2)NC(=O)[C@H](C(C)C)NC(=O)[C@H](CCC(=O)O)NC1=O [Peptide P19A] (Ac-SLEEEWAQIECEVYGRCPASES-NH2; disulfide 11-17)
6 | 158 | 143 | 123 | 141 | 23.1 | 20.6 | 21.2 | 27.3 | – | lower than 5 fold | CC[C@H](C)[C@H](NC(=O)[C@H](CCC(N)=O)NC(=O)[C@H](C)NC(=O)[C@H](Cc1c[nH]c2ccccc12)NC(=O)[C@H](CCC(=O)O)NC(=O)[C@H](CCC(=O)O)NC(=O)[C@H](CCC(=O)O)NC(=O)[C@H](CC(C)C)NC(=O)[C@H](CO)NC(C)=O)C(=O)N[C@@H](CCC(=O)O)C(=O)N[C@H]1CSSC[C@@H](C(=O)N[C@@H](C)C(=O)N2CCC[C@H]2C(=O)N[C@@H](CO)C(=O)N[C@@H](CCC(=O)O)C(=O)N[C@@H](CO)C(N)=O)NC(=O)[C@H](CCCNC(=N)N)NC(=O)CNC(=O)[C@H](Cc2ccc(O)cc2)NC(=O)[C@H](C(C)C)NC(=O)[C@H](CCC(=O)O)NC1=O [Peptide P18A] (Ac-SLEEEWAQIECEVYGRCAPSES-NH2; disulfide 11-17)
